Data on two molecules can be found in patent publication US20210147571A1, “MONOCLONAL ANTIBODY TARGETING HUMAN TUMOR STEM CELLS AND USE THEREOF” (Suzhou Bojuhua Biomedical Technology Co. Ltd, priority 2017, published 2021).

For experiment [1], the system named is Bel7402-V13 transplanted tumor. Briefly: human liver cancer transplanted tumor treated with Hetuzumab H5L11. Type of experiment: in vivo, nude mice. The settings on record: cisplatin 0.3 mg/kg, day 36. The protocol: Specifically, the sphere cells of the human liver cancer cell line Bel7402-V13 were harvested and inoculated subcutaneouly into nude mice at 30000 cells/mouse. […] The antibody treatments were started on the second day after inoculation of cancer cells. The experimental group and the control group were treated by intraperitoneal injection. The antibody treatments were performed for 36 days. The chemotherapeutic drug group was treated for 4 weeks, twice a week. The major and minor diameters of the subcutaneously transplanted tumor were measured twice a week. The tumor volume was calculated with the formula V=(π/6)×(major diameter×minor diameter×minor diameter). The change in tumor volume in each group was observed.

Experiment [2] deals with SNU-5 transplanted tumor. The experiment can be described thus: human gastric cancer transplanted tumor treated with Hetumomab. Type of experiment: in vivo, nude mice. The settings on record: cisplatin 0.3 mg/kg, one month. As to the method: Specifically, the sphere cells of the human gastric cancer cell line SNU-5-V13 were harvested and inoculated in nude mice at 2.5×10^5 cells/mouse. The mice were divided into following 7 groups, with 8 mice in each group: the PBS control group; the mouse IgG control group; the chemotherapy group (cisplatin 0.3 mg/kg); the high dose antibody Hetumomab group (20 mg/kg); the low dose Hetumomab group (1.25 mg/kg); the high dose Hetumomab+chemotherapeutic drug group; and the low dose Hetumomab+chemotherapeutic drug group. The antibody treatment was started on the second day after inoculation of gastric cancer cells.
The experimental groups and the control group were treated by intraperitoneal injection. The treatments were performed for one month. The chemotherapeutic drug group was treated for 4 weeks, twice a week. The major and minor diameters of the subcutaneously transplanted tumor were measured twice a week. The tumor volume was calculated with the formula V=(π/6)×(major diameter×minor diameter×minor diameter). The change in tumor volume in each group was observed.

For experiment [3], the system named is Bel7402-V13 sphere cells. The experiment can be described thus: inhibition of cisplatin resistance (CCK-8 IC50 after antibody treatment). The conditions noted are these: PBS-treated Bel7402-V13 sphere cells. Type of experiment: cell-based, human. As to the method: (§1) Drug resistance is one of the biological features of tumor stem cells. […] Each group of cells was cultured with a medium containing 9 different concentrations, i.e., 0, 0.0625, 0.125, 0.25, 0.5, 1, 2, 4, and 8 μg/mL, of cisplatin. The complete medium containing cisplatin was replaced once every 48 hours. After 5 days, CCK-8 reagent was added according to the instructions of CCK-8 kit. OD450 absorbance values were measured, and the IC50 values for each group were calculated.

Experiment [4] has as its system SPCA-1 cells. The description is as above. The settings on record: SPCA-1 control group. Type of experiment: cell-based, human. The protocol: as §1
The test system of experiment [5] is SPCA-1 cells. The experiment can be described thus: CCK8 drug resistance (cisplatin IC50) of flow-sorted cells. Type of experiment: cell-based, human. As to the method: In order to detect the drug resistance of Hetumomab^+ lung cancer cells, Hetumomab^+ cells, parental cells and Hetumomab^− cells obtained by flow sorting sphere cells of human lung cancer cells SPCA-1 were seeded at 5000 cells/well in a 96-well plate. […] Therefore, Hetumomab^+ lung cancer cells have stronger chemotherapeutic drug resistance than the parental cells and Hetumomab^− cells.

Experiment [6] has as its system Bel7402-V13 transplanted tumor. The experiment can be described thus: human liver cancer transplanted tumor treated with Hetumomab. Type of experiment: in vivo, nude mice. The settings on record: cisplatin 0.3 mg/kg. The protocol:
Bel7402-V13 sphere cells were inoculated subcutaneouly to nude mice at 30,000 cells/mouse. The nude mice were randomly divided into 6 groups (6 per group) as follows: the chemotherapy group (0.3 mg/kg cisplatin, 6 mice); the high dose antibody group (10 mg/kg, 6 mice); the high dose antibody+chemotherapy group (6 mice); the low dose antibody group (2.5 mg/kg, 6 mice); the low dose antibody+chemotherapy group (6 mice); and the PBS group (6 mice). The treatments were started the next day after the cells were inoculated, twice a week, and terminated after 5 weeks. The major and minor diameters of the subcutaneously transplanted tumor were measured twice a week. The tumor volume was calculated with the formula V=(π/6)×(major diameter×minor diameter×minor diameter), and the changes in tumor volume and growth rate of each group were observed. […] Tumor growth rate=(Vt−V0)/number of days, where Vt is the tumor volume at each measurement, and V0 is the tumor volume […] ([…]).

Experiment [7] concerns Bel7402-V13 cells. The experiment can be described thus: CCK8 drug resistance (cisplatin IC50) of flow-sorted cells. Type of experiment: cell-based, human. As to the method:
In order to detect the drug resistance of Hetumomab^+ liver cancer cells, Hetumomab^+ cells, parental cells and Hetumomab^− cells obtained by flow sorting sphere cells of human liver cancer cells Bel7402-V13 were seeded at 5000 cells/well in a 96-well plate. Each group of cells was cultured in a complete medium containing 8 different concentrations, i.e., 0 μg/mL, 0.0625 μg/mL, 0.125 μg/mL, 0.25 μg/mL, 0.5 μg/mL, 1 μg/mL, 2 μg/mL, and 4 μg/mL, of cisplatin. The medium was changed once every 3 days, and after 7 days, the OD value was measured by the CCK8 method to determine the IC50 reflecting drug resistance. […] Therefore, Hetumomab^+ liver cancer cells have stronger chemotherapeutic drug resistance than the parental cells and Hetumomab^− cells.

In experiment [8] the test system is SPCA-1 transplanted tumor. The experiment can be described thus: human lung cancer transplanted tumor treated with Hetumomab. The conditions noted are these: cisplatin 0.3 mg/kg, day 28. Type of experiment: in vivo, nude mice. As to the method:
Specifically, the sphere cells of the human lung cancer cell line SPCA-1 were harvested and inoculated in nude mice at 2.5×10^5 cells/mouse. The mice were divided into following 5 groups, with 5 mice in each group: the PBS control group; the chemotherapy group (cisplatin 0.3 mg/kg); the high dose antibody Hetumomab group (40 mg/kg); the medium dose antibody Hetumomab group (10 mg/kg); and the low dose Hetumomab group (2.5 mg/kg). The antibody treatment was started on the second day after inoculation of lung cancer cells. The experimental groups and the control group were treated by intraperitoneal injection. The treatments were performed for 28 days after inoculation. The chemotherapeutic drug group was treated twice a week. The major and minor diameters of the subcutaneously transplanted tumors were measured twice a week. The tumor volume was calculated with the formula V=(π/6)×(major diameter×minor diameter×minor diameter). The change in tumor volume in each group was observed.

Experiment [9] relates to Hetumomab target antigen on cells. Briefly: cell ELISA affinity of humanized chain versions. The settings on record: light chain mutant combined with heavy chain of Hetuximab. Type of experiment: binding, human. The source says: Based on the H1 heavy chain sequence, two other heavy chain mutants were designed as initial humanization: H2 and H3. The degree of humanization of these versions was in descending order. […] Since H1 was the most humanized version in which the framework regions were all humanized, H1 was finally determined as the preferred humanization molecular template.
Based on the L1 with fully humanized FR region, L2 and L3 were designed, and the degree of humanization of the three version was also in descending order. […] In order to find out which key amino acids were mutated during humanization, back mutations were performed, and nine different mutants (L4-L12) were prepared.
Therefore, L6, L11, and L12 were finally selected for optimization screening of the best light chain humanized version.
However, glycosylated isomers of Hetuzumab H1 heavy chain were confirmed by antibody sequence analysis and reductive electrophoresis analysis. In the analysis of H1 heavy chain expression products by electrophoresis, H1L6, H1L11, and H1L12 were all shown with weak sub-bands visible below the main band of the heavy chain. […] This may cause serious quality problems of uniformity, which is very unfavorable for drug development. […] H4 and H5 were combined with L11, respectively, and analyzed by electrophoresis after expression. […]
(In general: An ELISA detects its analyte on a solid surface through an enzyme-linked reagent.)

`N.N.[Cl][Pt][Cl]` [cisplatin]: the “Tumor Volume Inhibition Rate (%)” value is given as 14.52% in experiment [1], 33.16% in [2] and 24.91% in [8]. Besides, the “IC50 of cisplatin, control group” value in [3] was found to be 0.9 µg/mL; in [4], 0.351 µg/mL. In addition, the IC50 of cisplatin in [5] (SPCA-1 Hetumomab+ cells) was 0.707 µg/mL; in experiment [5] (SPCA-1 Hetumomab− cells) it was 0.180 µg/mL; in experiment [5] (SPCA-1 Parental Cells) it was 0.513 µg/mL; in experiment [7] (Bel7402-V13 Hetumomab+ cells, 7 days) it was 0.739 µg/mL; in experiment [7] (Bel7402-V13 Hetumomab− cells) it was 0.313 µg/mL; in experiment [7] (Bel7402-V13 Parental Cells), 0.502 µg/mL. Moreover, the “tumor volume inhibition rate” value was found to be 83.5% in [6] (at drug withdrawal after 5 weeks) and 48.6% in [6] (one month after drug withdrawal). Further, the tumor growth rate in [6] (month after drug withdrawal) was determined as 0.154 cm^3/day.

B1: L11: humanized light chain version L11 (SEQ ID NO:47), higher humanized version based on L6 (protein)
light: DIVMTQTPFSNPVTLGQPASISCRSSKSLLHSNGITYLYWFLQKPGQSPQLLIYQMSNLASGVPDRFSGSGSGTDFTLKISRVEAEDVGVYYCAQNLELYTFGQGTKVEIKRTVAAPSVFIFPPSDEQLKSGTASVVCLLNNFYPREAKVQWKVDNALQSGNSQESVTEQDSKDSTYSLSSTLTLSKADYEKHKVYACEVTHQGLSSPVTKSFNRGEC
modifications: Humanized light chain L11
Consider B1, for which the “affinity by cellular ELISA” value in experiment [9] is on record as “close to that of L6”.
